Laboratory results reported in publication PMC9719540, “Synthesis of an amphiphilic vancomycin aglycone derivative inspired by polymyxins: overcoming glycopeptide resistance in Gram-positive and Gram-negative bacteria in synergy with teicoplanin in vitro” (Scientific Reports, 2022).
Several values for one entry are separate records, joined by “and”; a condition that tells them apart may be missing. Identical values can stand only once. Counter-ions that a name gives are not always drawn. Like-named read-outs stand apart in the source and are kept apart here.

Experiments:
[1] = test system: Enterococcus faecalis 15376 VanA; assay: Antibacterial activity (MIC); format: cell-based
Protocol: (§1) The routine antibacterial evaluations were carried out as it was described in our previous publication. Antimicrobial synergy was determined by evaluating the fractional inhibitory concentration (FIC) index and was characterized by a conventional checkerboard assay. Bacteria grown to mid-logarithmic phase in MHB were pre-incubated with serially diluted concentrations of teicoplanin or vancomycin and compound 14. The sum of the FICs (ΣFIC) was calculated with the equation ΣFIC = FICA + FICB = (CA/MICA) + (CB/MICB), where MICA and MICB are the MICs of antimicrobial A and B alone, respectively, and CA and CB are the inhibitory concentrations of the drugs when combined, respectively. Synergy was defined as a ΣFICs ≤ 0.5 and additive activity was defined as a ΣFICs > 0.5 ≤ 1.0.

[2] = test system: Pseudomonas aeruginosa ATCC 27853; assay: Antibacterial activity (MIC); format: cell-based; conditions: ATCC27853
Protocol: as §1

[3] = test system: Acinetobacter baumannii ATCC BAA1605; assay: Antibacterial activity (MIC); format: cell-based
Protocol: as §1

[4] = test system: Staphylococcus epidermidis ATCC 35984 biofilm; assay: Antibacterial activity (MIC); format: cell-based
Protocol: as §1

[5] = test system: Bacillus subtilis ATCC 6633; assay: Antibacterial activity (MIC); format: cell-based; conditions: ATCC6633
Protocol: as §1

[6] = test system: Enterococcus faecalis ATCC 29212; assay: Antibacterial activity (MIC); format: cell-based; conditions: for MIC: ATCC29212
Protocol: as §1

[7] = test system: Staphylococcus aureus MRSA ATCC 33591; assay: Antibacterial activity (MIC); format: cell-based
Protocol: as §1

[8] = test system: Escherichia coli ATCC 25218; assay: Antibacterial activity (MIC); format: cell-based; conditions: ATCC25218
Protocol: as §1

[9] = test system: Staphylococcus aureus MSSA ATCC 29213; assay: Antibacterial activity (MIC); format: cell-based
Protocol: as §1

[10] = test system: Enterococcus faecalis ATCC 51299 VanB; assay: Antibacterial activity (MIC); format: cell-based
Protocol: as §1

[11] = test system: Staphylococcus epidermidis mecA; assay: Antibacterial activity (MIC); format: cell-based
Protocol: as §1

[12] = test system: Klebsiella pneumoniae ST258 clone K 160/09; assay: Antibacterial activity (MIC); format: cell-based
Protocol: as §1

hCMEC/D3 cells [13] = assay: MTT cytotoxicity (cell viability); format: cell-based, human
Protocol: (§2) The human immortalized hCMEC/D3 cells (Merck KGaA, Darmstadt, Germany, Cat. # SCC066) were cultured in EndoGRO-MV Complete Culture Media (supplemented with the components of the kit and fibroblast growth factor 2 (FGF-2) at 1 ng/mL final concentration).
(§3) In cell viability experiments, 1 × 10^4 hCMEC/D3 or Caco-2 cells/well were seeded on 96-weel plates. After 24 h of incubation, cells were treated with test solutions in different concentrations. The stock solution of the test molecule was dissolved in DMSO and further diluted with cell culture medium to prepare test solutions. […] The control group received culture medium. Cells were incubated with the test solutions for 72 h at 37 °C in an atmosphere of 5% CO2, and test solutions were replaced with 0.05 mg/ml 3-(4,5-dimethylthiazol-2-yl)-2,5-diphenyltetrazolium bromide (MTT) solutions prepared in PBS. Cells were incubated with MTT solutions for 4 h at 37 °C and the formed dark blue formazan crystals were dissolved in acidic isopropanol (isopropanol: 1.0 N hydrochloric acid = 25:1). The absorbance was measured at 570 nm against a 690 nm reference wavelength with a Thermo Fisher Multiskan Go microplate reader (Thermo Fisher, Waltham, MA, USA). Cell viability was expressed as the percentage of the untreated control and IC50 values were calculated by GraphPad Prism 7 software (GraphPad Software Inc., San Diego, CA, USA).

Caco-2 cells [14] = assay: MTT cytotoxicity of combinations, checkerboard configuration; format: cell-based, human; conditions: teicoplanin : compound 14 32:2 µg/mL
Protocol: (§4) Human Caco-2 intestinal epithelial cells were obtained from European Collection of Cell Cultures (ECACC, UK) and grown routinely in Dulbecco’s Minimum Essential Medium (DMEM), supplemented with 10% fetal bovine serum (FBS), 1% non-essential amino acid and 1% penicillin–streptomycin solution.
as §3, with “in PBS. […] The absorbance” for “in PBS. Cells were incubated with MTT solutions for 4 h at 37 °C and the formed dark blue formazan crystals were dissolved in acidic isopropanol (isopropanol: 1.0 N hydrochloric acid = 25:1). The absorbance”, “CA, USA). […]” for “CA, USA).”

hCMEC/D3 cells [15] = assay: as above; format: cell-based, human
Protocol: as §2
as §3, with “CA, USA). […]” for “CA, USA).”

[16] = test system: Pseudomonas aeruginosa ATCC 27853; assay: Checkerboard assay, combined susceptibility (FIC index); format: cell-based; conditions: for MIC of antibiotic in comb.: antibiotic combined with 14; for MIC of antibiotic alone: checkerboard
Protocol: (§5) To determine the activity profile of teicoplanin and vancomycin in combination with compound 14, combined susceptibility tests were perfomed against […] Gram negative strains including Escherichia coli, Pseudomonas aeruginosa, Acinetobacter baumannii and Klebsiella pneumoniae bacteria. The combined effects of compound 14 and the glycopeptide antibiotics were determined by conventional checkerboard assays (images of the chequerboard assay for synergistic combinations are shown in Supplementary Information S1).
as §1

[17] = test system: Acinetobacter baumannii ATCC BAA1605; assay: as above; format: cell-based; conditions: for MIC of antibiotic in comb.: antibiotic combined with 14; for MIC of antibiotic alone: checkerboard
Protocol: as §5, §1

[18] = test system: Escherichia coli ATCC 25218; assay: as above; format: cell-based; conditions: for MIC of antibiotic in comb.: antibiotic combined with 14; for MIC of antibiotic alone: checkerboard
Protocol: as §5, §1

[19] = test system: Klebsiella pneumoniae ST258 clone K 160/09; assay: as above; format: cell-based; conditions: for MIC of antibiotic in comb.: antibiotic combined with 14
Protocol: as §5, §1

Caco-2 cells [20] = assay: MTT cytotoxicity (cell viability); format: cell-based, human
Protocol: as §4, §3

[21] = MTT cytotoxicity (cell viability); format: cell-based, human; conditions: human; Caco-2 cells, MTT, 72 h
Protocol: as §4, §3

[22] = between 0.082 and 200 µM (0.155–375.94 µg/mL)

CCCCCCCCCC(=O)N[C@H](CC(C)C)C(=O)N[C@H]1C(=O)N[C@@H](CC(N)=O)C(=O)N[C@H]2C(=O)N[C@H]3C(=O)N[C@H](C(=O)N[C@H](C(=O)NCCN)c4cc(OCCN)cc(OCCN)c4-c4cc3ccc4OCCN)[C@H](O)c3ccc(c(Cl)c3)Oc3cc2cc(c3OCCN)Oc2ccc(cc2Cl)[C@H]1O [Compound 14, Tetraaminoethyl N-decanoyl norvancomycin aglycone aminoethyl amide trifluoroacetate salt]
MIC ([1]; Enterococcus faecalis 15376 VanA, read-out: MIC): 8 mg/L
times more potent than vancomycin (MIC ratio) ([1]; resistant VanA E. faecalis): 32 times
MIC ([2]; Pseudomonas aeruginosa ATCC 27853, read-out: MIC): 128 mg/L
MIC ([3]; ATCCBAA1605, Acinetobacter baumannii ATCC BAA1605, read-out: MIC): 128 mg/L
MIC ([4]; ATCC35984, Staphylococcus epidermidis ATCC 35984 biofilm, read-out: MIC): 4 mg/L
MIC ([5]; Bacillus subtilis ATCC 6633, read-out: MIC): 4 mg/L
MIC ([6]; Enterococcus faecalis ATCC 29212, read-out: MIC): 16 mg/L
times less active than vancomycin (MIC ratio) ([6]; vancomycin sensitive E. faecalis ATCC 29212): 16 times
MIC ([7]; Staphylococcus aureus MRSA ATCC 33591, read-out: MIC): 8 mg/L
MIC ([8]; Escherichia coli ATCC 25218, read-out: MIC): 128 mg/L
MIC ([9]; Staphylococcus aureus MSSA ATCC 29213, read-out: MIC): 8 mg/L
MIC ([10]; ATCC51299, Enterococcus faecalis ATCC 51299 VanB, read-out: MIC): 32 mg/L
MIC ([11]; Staphylococcus epidermidis mecA, read-out: MIC): 2 mg/L
MIC ([12]; Klebsiella pneumoniae ST258 clone K 160/09, read-out: MIC): 256 mg/L
IC50 (hCMEC/D3 cells [13]; MTT, 72 h): 56.2 ± 7.74 µM
IC50 (cytotoxicity) (hCMEC/D3 cells [13]; MTT, 72 h): 116.29 ± 16 mg/L
toxicity of combination (Caco-2 cells [14]): not toxic
cell viability (hCMEC/D3 cells [15]; teicoplanin : compound 14 2:32 µg/mL, percentage of untreated control): 81.4%
toxicity of combination (hCMEC/D3 cells [15]; teicoplanin : compound 14 32:2 µg/mL): not toxic
FIC index ([16]; 14 combined with teicoplanin): 0.375
FIC index ([16]; 14 combined with vancomycin): 0.5625
MIC ([16]; ATCC27853, checkerboard, read-out: MIC of 14 alone): 256 mg/L
MIC of 14 in comb. ([16]; combined with teicoplanin): 32 mg/L
MIC of 14 in comb. ([16]; combined with vancomycin): 64 mg/L
FIC index ([17]; 14 combined with teicoplanin): 0.2656
FIC index ([17]; 14 combined with vancomycin): 0.75
MIC ([17]; ATCCBAA1605, checkerboard, read-out: MIC of 14 alone): 128 mg/L
MIC of 14 in comb. ([17]; combined with teicoplanin): 2 mg/L
MIC of 14 in comb. ([17]; combined with vancomycin): 32 mg/L
FIC index ([18]; 14 combined with teicoplanin): 0.2578
FIC index ([18]; 14 combined with vancomycin): 0.5078
MIC ([18]; ATCC25218, checkerboard, read-out: MIC of 14 alone): 256 mg/L
MIC of 14 in comb. ([18]; combined with teicoplanin): 32 mg/L
MIC of 14 in comb. ([18]; combined with vancomycin): 64 mg/L
Combined effect ([19]; 14 combined with teicoplanin): neither synergy nor additive activity and None
Combined effect ([19]; 14 combined with vancomycin): neither synergy nor additive activity and None
MIC ([19]; checkerboard, read-out: MIC of 14 alone): 256 mg/L
MIC of 14 in comb. ([19]; combined with teicoplanin): 256 mg/L
MIC of 14 in comb. ([19]; combined with vancomycin): 256 mg/L
IC50 (Caco-2 cells [20]; MTT, 72 h): > 100 µM
IC50 (cytotoxicity) (Caco-2 cells [20]; MTT, 72 h): > 206.86 mg/L

CN[C@H](CC(C)C)C(=O)N[C@H]1C(=O)N[C@@H](CC(N)=O)C(=O)N[C@H]2C(=O)N[C@H]3C(=O)N[C@H](C(=O)N[C@H](C(=O)O)c4cc(O)cc(O)c4-c4cc3ccc4O)[C@H](O)c3ccc(c(Cl)c3)Oc3cc2cc(c3O[C@@H]2O[C@H](CO)[C@@H](O)[C@H](O)[C@H]2O[C@H]2C[C@](C)(N)[C@H](O)[C@H](C)O2)Oc2ccc(cc2Cl)[C@H]1O [Vancomycin]
MIC ([1]; Enterococcus faecalis, 15376VANA): 256 mg/L
MIC ([2]; Pseudomonas aeruginosa): 256 mg/L
MIC ([3]; Acinetobacter baumannii, ATCCBAA1605): 128 mg/L
MIC ([4]; Staphylococcus epidermidis, ATCC35984): 2 mg/L
MIC ([5]; Bacillus subtilis): 0.5 mg/L
MIC ([6]; Enterococcus faecalis): 1 mg/L
MIC ([7]; Staphylococcus aureus): 0.5 mg/L
MIC ([8]; Escherichia coli): 256 mg/L
MIC ([9]; Staphylococcus aureus): 0.5 mg/L
MIC ([10]; Enterococcus faecalis, ATCC51299): 128 mg/L
MIC ([11]; Staphylococcus epidermidis): 4 mg/L
MIC ([12]; Klebsiella pneumoniae): 256 mg/L
MIC of antibiotic in comb. [16]: 16 mg/L
MIC of antibiotic alone [16]: 256 mg/L
MIC of antibiotic in comb. [17]: 64 mg/L
MIC of antibiotic alone [17]: 128 mg/L
MIC of antibiotic in comb. [18]: 2 mg/L
MIC of antibiotic alone [18]: 256 mg/L
MIC of antibiotic in comb. [19]: 256 mg/L
MIC of antibiotic alone ([19]; checkerboard): 256 mg/L
IC50 at 72 h [21]: 54.2 µM and 78.7 µg/mL

Teicoplanin
MIC ([1]; Enterococcus faecalis 15376 VanA): 256 mg/L
MIC ([2]; Pseudomonas aeruginosa): 256 mg/L
MIC ([3]; Acinetobacter baumannii ATCC BAA1605): 128 mg/L
MIC ([4]; Staphylococcus epidermidis ATCC 35984 biofilm): 4 mg/L
MIC ([5]; Bacillus subtilis): 0.5 mg/L
MIC ([6]; Enterococcus faecalis): 1 mg/L
MIC ([7]; Staphylococcus aureus MRSA ATCC 33591): 0.5 mg/L
MIC ([8]; Escherichia coli): 256 mg/L
MIC ([9]; Staphylococcus aureus MSSA ATCC 29213): 0.5 mg/L
MIC ([10]; Enterococcus faecalis ATCC 51299 VanB): 0.5 mg/L
MIC ([11]; Staphylococcus epidermidis mecA): 16 mg/L
MIC ([12]; Klebsiella pneumoniae ST258 clone K 160/09): 256 mg/L
cytotoxic effect (hCMEC/D3 cells [13]; [22]): did not show cytotoxic effect
MIC of antibiotic in comb. [16]: 32 mg/L
MIC of antibiotic alone [16]: 256 mg/L
MIC of antibiotic in comb. [17]: 32 mg/L
MIC of antibiotic alone [17]: 128 mg/L
MIC of antibiotic in comb. [18]: 2 mg/L
MIC of antibiotic alone [18]: 256 mg/L
MIC of antibiotic in comb. [19]: 256 mg/L
MIC of antibiotic alone ([19]; checkerboard): 256 mg/L
cytotoxic effect (Caco-2 cells [20]; [22]): did not show cytotoxic effect
